From PubChem BioAssay AID2060910 (Molecular Pharmacology Branch, DTP, NCI, 2025)

Test system: 242566-281-R-J2-PDC complex spheroid viability
Test: Anticancer human tumor 242566-281-R-J2-PDC patient-derived pancreatic carcinoma cell line growth inhibition [RAS]
Conditions: for IC50: curve of first compound; for viability, T/C: stronger effect = lower value
Summary of the method: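 Agents were tested in combination matrices in half-log decrements from a top concentration at or near clinical Cmax (10 microM if undetermined). Targets were multi-cell spheroids of tumour lines plus HUVEC and MSC stromal cells.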

[1] = second compound 0.000949 µM, first compound 0.0316 µM
[2] = second compound 0.000949 µM, first compound 0.1 µM
[3] = second compound 0.000949 µM, first compound 0.316 µM
[4] = second compound 0.000949 µM, first compound 1 µM
[5] = second compound 0.000949 µM, first compound 3.16 µM
[6] = second compound 0.000949 µM, first compound 10 µM
[7] = second compound 0.003 µM, first compound 0.0316 µM
[8] = second compound 0.003 µM, first compound 0.1 µM
[9] = second compound 0.003 µM, first compound 0.316 µM
[10] = second compound 0.003 µM, first compound 1 µM
[11] = second compound 0.003 µM, first compound 3.16 µM
[12] = second compound 0.003 µM, first compound 10 µM
[13] = second compound 0.00949 µM, first compound 0.0316 µM
[14] = second compound 0.00949 µM, first compound 0.1 µM
[15] = second compound 0.00949 µM, first compound 0.316 µM
[16] = second compound 0.00949 µM, first compound 1 µM
[17] = second compound 0.00949 µM, first compound 3.16 µM
[18] = second compound 0.00949 µM, first compound 10 µM
[19] = second compound 0.03 µM, first compound 0.0316 µM
[20] = second compound 0.03 µM, first compound 0.1 µM
[21] = second compound 0.03 µM, first compound 0.316 µM
[22] = second compound 0.03 µM, first compound 1 µM
[23] = second compound 0.03 µM, first compound 3.16 µM
[24] = second compound 0.03 µM, first compound 10 µM
[25] = second compound 0.0949 µM, first compound 0.0316 µM
[26] = second compound 0.0949 µM, first compound 0.1 µM
[27] = second compound 0.0949 µM, first compound 0.316 µM
[28] = second compound 0.0949 µM, first compound 1 µM
[29] = second compound 0.0949 µM, first compound 3.16 µM
[30] = second compound 0.0949 µM, first compound 10 µM
[31] = second compound 0.3 µM, first compound 0.0316 µM
[32] = second compound 0.3 µM, first compound 0.1 µM
[33] = second compound 0.3 µM, first compound 0.316 µM
[34] = second compound 0.3 µM, first compound 1 µM
[35] = second compound 0.3 µM, first compound 3.16 µM
[36] = second compound 0.3 µM, first compound 10 µM
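Also: spheroids exposed to compound for 7 days before readout.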
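For viability, T/C in this document: 100% = DMSO vehicle control wells.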

CC(C)n1nc(-c2ccc3oc(N)nc3c2)c2c(N)ncnc21 + C=CC(=O)N1CCN(c2nc(OCC3CCCN3C)nc3c(F)c(-c4nc(N)cc(C)c4C(F)(F)F)c(Cl)cc23)C(C)C1
IC50 (second compound 0.00316 µM): > 100 nM | IC50 (second compound 0.01 µM): > 100 nM | IC50 (second compound 0.0316 µM): > 100 nM | IC50 (second compound 0.1 µM): > 100 nM | IC50 (second compound 0.316 µM): > 100 nM | IC50 (second compound 1 µM): > 100 nM | viability, T/C (second compound 0.00316 µM, first compound 0.000316 µM): 93.1% | viability, T/C (second compound 0.00316 µM, first compound 0.001 µM): 154% | viability, T/C (second compound 0.00316 µM, first compound 0.00316 µM): 91.4% | viability, T/C (second compound 0.00316 µM, first compound 0.01 µM): 78.9% | viability, T/C (second compound 0.00316 µM, first compound 0.0316 µM): 58.5% | viability, T/C (second compound 0.00316 µM, first compound 0.1 µM): 53.8% | viability, T/C (second compound 0.01 µM, first compound 0.000316 µM): 111% | viability, T/C (second compound 0.01 µM, first compound 0.001 µM): 150% | viability, T/C (second compound 0.01 µM, first compound 0.00316 µM): 94.9% | viability, T/C (second compound 0.01 µM, first compound 0.01 µM): 72.7% | viability, T/C (second compound 0.01 µM, first compound 0.0316 µM): 55.5% | viability, T/C (second compound 0.01 µM, first compound 0.1 µM): 53.6% | viability, T/C (second compound 0.0316 µM, first compound 0.000316 µM): 101% | viability, T/C (second compound 0.0316 µM, first compound 0.001 µM): 138% | viability, T/C (second compound 0.0316 µM, first compound 0.00316 µM): 83.4% | viability, T/C (second compound 0.0316 µM, first compound 0.01 µM): 79.2% | viability, T/C (second compound 0.0316 µM, first compound 0.0316 µM): 67.1% | viability, T/C (second compound 0.0316 µM, first compound 0.1 µM): 54.6% | viability, T/C (second compound 0.1 µM, first compound 0.000316 µM): 98.5% | viability, T/C (second compound 0.1 µM, first compound 0.001 µM): 111% | viability, T/C (second compound 0.1 µM, first compound 0.00316 µM): 89.9% | viability, T/C (second compound 0.1 µM, first compound 0.01 µM): 84.3% | viability, T/C (second compound 0.1 µM, first compound 0.0316 µM): 62% | viability, T/C (second compound 0.1 µM, first compound 0.1 µM): 55.7% | viability, T/C (second compound 0.316 µM, first compound 0.000316 µM): 109% | viability, T/C (second compound 0.316 µM, first compound 0.001 µM): 107% | viability, T/C (second compound 0.316 µM, first compound 0.00316 µM): 107% | viability, T/C (second compound 0.316 µM, first compound 0.01 µM): 81.5% | viability, T/C (second compound 0.316 µM, first compound 0.0316 µM): 69.5% | viability, T/C (second compound 0.316 µM, first compound 0.1 µM): 55.3% | viability, T/C (second compound 1 µM, first compound 0.000316 µM): 109% | viability, T/C (second compound 1 µM, first compound 0.001 µM): 140% | viability, T/C (second compound 1 µM, first compound 0.00316 µM): 86.4% | viability, T/C (second compound 1 µM, first compound 0.01 µM): 88.3% | viability, T/C (second compound 1 µM, first compound 0.0316 µM): 75.2% | viability, T/C (second compound 1 µM, first compound 0.1 µM): 55.7%

O=C(c1ccc(F)c(F)c1Nc1ccc(I)cc1F)N1CC(O)([C@@H]2CCCCN2)C1
viability, T/C (compound 0.1 µM): 64.1% [middle of 4 runs] | viability, T/C (compound 0.316 µM): 41.3% [middle of 4 runs]

Cc1nc(N2CCC3(CC2)COC(C)C3N)c(CO)nc1Sc1ccnc(N)c1Cl (stereo not drawn) + CCn1c(-c2cccnc2C(C)OC)c2c3cc(ccc31)N1CCOC(CC(NC(=O)C(C(C)C)N(C)C(=O)C3(F)CCN(C(=O)C#CC(C)(C)N(C)C)CC3)C(=O)N3CCCC(N3)C(=O)OCC(C)(C)C2)C1
IC50 (second compound 0.000949 µM): > 10000 nM | IC50 (second compound 0.003 µM): > 10000 nM | IC50 (second compound 0.00949 µM): > 10000 nM | IC50 (second compound 0.03 µM): > 10000 nM | IC50 (second compound 0.0949 µM): > 10000 nM | IC50 (second compound 0.3 µM): > 10000 nM | viability, T/C [1]: 94.9% | viability, T/C [2]: 93.2% | viability, T/C [3]: 63.1% | viability, T/C [4]: 77.4% | viability, T/C [5]: 71.5% | viability, T/C [6]: 53.4% | viability, T/C [7]: 102% | viability, T/C [8]: 80% | viability, T/C [9]: 80% | viability, T/C [10]: 81.5% | viability, T/C [11]: 74% | viability, T/C [12]: 52.8% | viability, T/C [13]: 98.8% | viability, T/C [14]: 73.4% | viability, T/C [15]: 67.3% | viability, T/C [16]: 71% | viability, T/C [17]: 67.1% | viability, T/C [18]: 68.6% | viability, T/C [19]: 97.6% | viability, T/C [20]: 85.5% | viability, T/C [21]: 82% | viability, T/C [22]: 73.7% | viability, T/C [23]: 60.7% | viability, T/C [24]: 61.6% | viability, T/C [25]: 75.1% | viability, T/C [26]: 77.3% | viability, T/C [27]: 79.7% | viability, T/C [28]: 71.1% | viability, T/C [29]: 54.3% | viability, T/C [30]: 61.9% | viability, T/C [31]: 73.7% | viability, T/C [32]: 72.8% | viability, T/C [33]: 61.5% | viability, T/C [34]: 50.5% | viability, T/C [35]: 49.9% | viability, T/C [36]: 51.5%

NC1c2ccccc2OC12CCN(c1cnc3c(N4CCCc5ncccc54)n[nH]c3n1)CC2 (stereo not drawn) + CCn1c(-c2cc(N3CCN(C)CC3)cnc2C(C)OC)c2c3cc(ccc31)-c1csc(n1)CC(NC(=O)C1CC1C)C(=O)N1CCCC(N1)C(=O)OCC(C)(C)C2
IC50 (second compound 0.000949 µM): 50.8 nM | IC50 (second compound 0.003 µM): < 31.6 nM | IC50 (second compound 0.00949 µM): < 31.6 nM | IC50 (second compound 0.03 µM): < 31.6 nM | IC50 (second compound 0.0949 µM): < 31.6 nM | IC50 (second compound 0.3 µM): < 31.6 nM | viability, T/C [1]: 58.2% | viability, T/C [2]: 40.6% | viability, T/C [3]: 20.6% | viability, T/C [4]: 24.9% | viability, T/C [5]: 21.2% | viability, T/C [6]: 8.53% | viability, T/C [7]: 42.9% | viability, T/C [8]: 26.4% | viability, T/C [9]: 18.9% | viability, T/C [10]: 21.3% | viability, T/C [11]: 18.4% | viability, T/C [12]: 6.57% | viability, T/C [13]: 31.6% | viability, T/C [14]: 19.2% | viability, T/C [15]: 18.1% | viability, T/C [16]: 15.8% | viability, T/C [17]: 13.4% | viability, T/C [18]: 7.23% | viability, T/C [19]: 23.1% | viability, T/C [20]: 18.1% | viability, T/C [21]: 15.7% | viability, T/C [22]: 15.2% | viability, T/C [23]: 12.8% | viability, T/C [24]: 7.77% | viability, T/C [25]: 20.1% | viability, T/C [26]: 16.8% | viability, T/C [27]: 14.8% | viability, T/C [28]: 13.6% | viability, T/C [29]: 11.8% | viability, T/C [30]: 7.6% | viability, T/C [31]: 15.6% | viability, T/C [32]: 15.4% | viability, T/C [33]: 14.4% | viability, T/C [34]: 10.6% | viability, T/C [35]: 9.17% | viability, T/C [36]: 4.89%
